Experiments:
[1] = system: GALAP (Galium); assay: Postemergence herbicidal evaluation; type: in vivo, Galium aparine; conditions: for GALAP herbicidal rating: postemergence
Method in brief: (§1)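 Scores (0–9) reflect plant stand, vigor, malformation, size, chlorosis and general appearance relative to control, read 4 to 5 weeks after treatment and averaged where tests were repeated. Application: about 0.0156–0.500 kg/ha sprayed at 40 psi onto two-week seedlings.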

[2] = system: TRZAWR (Wheat, Winter, cv Riband); assay: Postemergence herbicidal evaluation; type: in vivo, Triticum aestivum; conditions: for TRZAWR herbicidal rating: postemergence
Method in brief: as §1

[3] = system: SAGPY (Arrowhead (Pygmaea)); assay: Postemergence weed control under flooded paddy conditions; type: in vivo, Sagittaria pygmaea; conditions: postemergence weeds, 3-4 weeks after treatment
Method in brief: (§2)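 Injury ratings (0–9 scale covering stand, vigor, malformation, size, chlorosis and overall appearance versus control) were made three to four weeks after treatment. Test material, about 0.0313 to 0.500 kg/ha a.i. in 50/50 v/v aqueous/acetone, was added to flood water 1.5 to 3 cm deep over 3 to 5 cm weeds and 1.5 to 2.5 leaf rice.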

[4] = system: AMBEL (Ragweed, Common); assay: Postemergence herbicidal evaluation; type: in vivo, Ambrosia artemisifolia; conditions: for AMBEL herbicidal rating: postemergence
Method in brief: as §1

[5] = system: ORYSAT (Rice, Tebonnet); assay: Rice tolerance to post-transplant applications, flooded paddy conditions (Table IV); type: in vivo, Oryza sativa, (L.) Tebonnet; conditions: in vivo
Method in brief: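 Containers holding 3–5 cm weeds and rice at 1.5–2.5 leaves are flooded to 1.5–3 cm above soil. Compound in 50/50 v/v aqueous/acetone is then added directly to the water, about 0.0313–0.500 kg/ha. Plants are kept in the greenhouse and rated 0–9 visually at 3–4 weeks.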

[6] = system: MOOVA (Monochoria); assay: Postemergence weed control under flooded paddy conditions; type: in vivo, Monochoria vaginalis; conditions: postemergence weeds, 3-4 weeks after treatment
Method in brief: as §2

[7] = system: CHEAL (Lambsquarters, Common); assay: Preemergence herbicidal evaluation; type: in vivo, Chenopodium album; conditions: rated 4-5 weeks after treatment
Method in brief: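 Test compound, dissolved in aqueous acetone, was sprayed over planted soil cups at an equivalent of about 0.0156 to 0.500 kg/ha; seeds had been mixed with potting soil. Greenhouse growth followed, with visual 0-9 scoring of injury at four to five weeks.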

[8] = system: ORYSAT (Rice, Tebonnet); assay: Rice tolerance to post-transplant applications, flooded paddy conditions (Table III); type: in vivo, Oryza sativa, (L.) Tebonnet; conditions: in vivo
Method in brief: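 Injury scored 0-9 by eye against untreated control, judging stand, vigor, malformation, size and chlorosis, three to four weeks after treatment. Compound in 50/50 aqueous/acetone, about 0.0313 to 0.500 kg/ha, was applied to paddy water (1.5 to 3 cm depth) three days after transplanting paired ten-day-old Tebonnet rice seedlings.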

CCOC(=O)CN1C(=O)C(=C2CCCC2)SC1=Nc1cc(-n2c(=O)cc(C(F)(F)F)n(C)c2=O)c(F)cc1Cl [Compound 18, Ethyl 2-{{2-chloro-5-[3,6-dihydro-3-methyl-2,6-dioxo-4-(trifluoromethyl)-1(2H)-pyrimidinyl]-4-fluorophenyl}imino}-5-cyclopentylidene-4-oxo-3-thiazolidineacetate]
GALAP herbicidal rating ([1]; rate 0.0158 kg/ha): 2.0 | GALAP herbicidal rating ([1]; rate 0.0315 kg/ha): 5.0 | GALAP herbicidal rating ([1]; rate 0.0630 kg/ha): 6.0 | TRZAWR herbicidal rating ([2]; rate 0.0158 kg/ha): 2.5 | TRZAWR herbicidal rating ([2]; rate 0.0315 kg/ha): 3.0 | TRZAWR herbicidal rating ([2]; rate 0.0630 kg/ha): 3.0 | Herbicidal rating SAGPY ([3]; rate 0.1160 kg/ha): 0.0 | Herbicidal rating SAGPY ([3]; rate 0.2310 kg/ha): 0.0 | Herbicidal rating SAGPY ([3]; rate 0.4630 kg/ha): 6.0 | AMBEL herbicidal rating ([4]; rate 0.0158 kg/ha): 4.0 | AMBEL herbicidal rating ([4]; rate 0.0315 kg/ha): 9.0 | AMBEL herbicidal rating ([4]; rate 0.0630 kg/ha): 7.0 | Herbicidal rating ORYSAT (rice tolerance) [5]: 3.0 | Herbicidal rating MOOVA ([6]; rate 0.1160 kg/ha): 9.0 | Herbicidal rating MOOVA ([6]; rate 0.2310 kg/ha): 9.0 | Herbicidal rating MOOVA ([6]; rate 0.4630 kg/ha): 9.0 | CHEAL preemergence herbicidal rating ([7]; rate 0.1250 kg/ha): 8.0 | CHEAL preemergence herbicidal rating ([7]; rate 0.2500 kg/ha): 9.0 | Herbicidal rating ORYSAT (rice tolerance) [8]: 3.0

Cn1c(C(F)(F)F)cc(=O)n(-c2cc(N=C3SCC(=O)N3CCC(=O)O)c(Cl)cc2F)c1=O [Compound 31, 2-{{2-Chloro-5-[3,6-dihydro-3-methyl-2,6-dioxo-4-(trifluoromethyl)-1(2H)-pyrimidinyl]-4-fluoro-phenyl}imino}-4-oxo-3-thiazolidinepropionic acid]
Postemergence herbicidal rating GALAP ([1]; Rate 0.0158 kg/ha): 0.0 | Postemergence herbicidal rating GALAP ([1]; Rate 0.0315 kg/ha): 1.0 | Postemergence herbicidal rating GALAP ([1]; Rate 0.0630 kg/ha): 3.0 | Postemergence herbicidal rating TRZAWR ([2]; Rate 0.0158 kg/ha): 5.0 | Postemergence herbicidal rating TRZAWR ([2]; Rate 0.0315 kg/ha): 5.5 | Postemergence herbicidal rating TRZAWR ([2]; Rate 0.0630 kg/ha): 6.5 | Herbicidal rating SAGPY ([3]; rate 0.0625 kg/ha): 0.0 | Herbicidal rating SAGPY ([3]; rate 0.1250 kg/ha): 0.0 | Herbicidal rating SAGPY ([3]; rate 0.2500 kg/ha): 0.0 | Postemergence herbicidal rating AMBEL ([4]; Rate 0.0158 kg/ha): 0.0 | Postemergence herbicidal rating AMBEL ([4]; Rate 0.0315 kg/ha): 2.0 | Postemergence herbicidal rating AMBEL ([4]; Rate 0.0630 kg/ha): 7.0 | Herbicidal rating ORYSAT (rice tolerance) [5]: 0.0 | Herbicidal rating MOOVA ([6]; rate 0.0625 kg/ha): 0.0 | Herbicidal rating MOOVA ([6]; rate 0.1250 kg/ha): 0.0 | Herbicidal rating MOOVA ([6]; rate 0.2500 kg/ha): 2.5 | Preemergence herbicidal rating CHEAL ([7]; rate 0.0625 kg/ha): 0.0 | Preemergence herbicidal rating CHEAL ([7]; rate 0.1250 kg/ha): 9.0 | Preemergence herbicidal rating CHEAL ([7]; rate 0.2500 kg/ha): 9.0 | Herbicidal rating ORYSAT (rice tolerance) [8]: 0.0
